Test results taken from the supplement of paper PMC10307832.

Key:
Experiment in all cases: relative viability (nuclei count vs DMSO), 5 days (fraction); higher = more cells survive
[1] = compound: COc1cc2c(Oc3ccc4[nH]c(C)cc4c3F)ncnc2cc1OCCCN1CCCC1 [Cediranib] + CC(=O)c1c(C)c2cnc(Nc3ccc(N4CCNCC4)cn3)nc2n(C2CCCC2)c1=O [Palbociclib] (partner 0.5 µM)
In short: (§1)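 One day after seeding in 1536-well plates, lung cancer cell lines were dosed by pin tool. Dosing was either single-drug or a fixed anchor-drug dose plus five library-drug doses (not always all listed) in √10 steps. After 5 days, nuclei were stained in one fix-and-stain step and counted on 4× images, and relative viability is the nuclei count of treated wells over that of vehicle wells, given as the median of duplicate plates.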

[2] = compound: COc1cc2c(Oc3ccc4[nH]c(C)cc4c3F)ncnc2cc1OCCCN1CCCC1 [Cediranib] + CC(=O)Nc1cccc(-n2c(=O)n(C3CC3)c(=O)c3c(Nc4ccc(I)cc4F)n(C)c(=O)c(C)c32)c1 [Trametinib] (partner 0.02 µM)
In short: as §1

[3] = compound: COc1cc2c(Oc3ccc4[nH]c(C)cc4c3F)ncnc2cc1OCCCN1CCCC1 [Cediranib] + N=C(N)NC(=N)NCCc1ccccc1 [Phenformin] (partner 250 µM)
In short: as §1

[4] = compound: COc1cc2c(Oc3ccc4[nH]c(C)cc4c3F)ncnc2cc1OCCCN1CCCC1 [Cediranib] + Nc1nc2[nH]cc(CCc3ccc(C(=O)N[C@@H](CCC(=O)O)C(=O)O)cc3)c2c(=O)[nH]1 [Pemetrexed] (partner 0.2 µM)
In short: as §1

Cell Line: LXF-289
- relative viability ([1]; first compound 0.04 µM): 0.617
- relative viability ([1]; first compound 0.4 µM): 0.569
- relative viability ([1]; first compound 1.265 µM): 0.566
- relative viability ([1]; first compound 4 µM): 0.609
- relative viability ([2]; first compound 0.04 µM): 0.671
- relative viability ([2]; first compound 0.4 µM): 0.676
- relative viability ([2]; first compound 1.265 µM): 0.651
- relative viability ([2]; first compound 4 µM): 0.632
- relative viability ([3]; first compound 0.04 µM): 0.565
- relative viability ([3]; first compound 0.1265 µM): 0.404
- relative viability ([3]; first compound 0.4 µM): 0.487
- relative viability ([3]; first compound 1.265 µM): 0.49
- relative viability ([3]; first compound 4 µM): 0.549
- relative viability ([4]; first compound 0.04 µM): 1.1
- relative viability ([4]; first compound 0.4 µM): 0.8
- relative viability ([4]; first compound 1.265 µM): 0.936
- relative viability ([4]; first compound 4 µM): 0.863

Cell Line: NCI-H1650
- relative viability ([1]; first compound 0.04 µM): 0.421
- relative viability ([1]; first compound 0.1265 µM): 0.328
- relative viability ([1]; first compound 0.4 µM): 0.304
- relative viability ([1]; first compound 1.265 µM): 0.404
- relative viability ([1]; first compound 4 µM): 0.334
- relative viability ([2]; first compound 0.04 µM): 0.574
- relative viability ([2]; first compound 0.1265 µM): 0.606
- relative viability ([2]; first compound 0.4 µM): 0.541
- relative viability ([2]; first compound 1.265 µM): 0.54
- relative viability ([2]; first compound 4 µM): 0.393
- relative viability ([3]; first compound 0.04 µM): 0.436
- relative viability ([3]; first compound 0.1265 µM): 0.581
- relative viability ([3]; first compound 0.4 µM): 0.351
- relative viability ([3]; first compound 1.265 µM): 0.362
- relative viability ([3]; first compound 4 µM): 0.341
- relative viability ([4]; first compound 0.04 µM): 0.394
- relative viability ([4]; first compound 0.1265 µM): 0.364
- relative viability ([4]; first compound 0.4 µM): 0.38
- relative viability ([4]; first compound 1.265 µM): 0.349
- relative viability ([4]; first compound 4 µM): 0.384

Cell Line: NCI-H1755
- relative viability ([1]; first compound 0.04 µM): 0.441
- relative viability ([1]; first compound 0.1265 µM): 0.429
- relative viability ([1]; first compound 0.4 µM): 0.436
- relative viability ([1]; first compound 1.265 µM): 0.441
- relative viability ([1]; first compound 4 µM): 0.422
- relative viability ([2]; first compound 0.04 µM): 0.8
- relative viability ([2]; first compound 0.1265 µM): 0.804
- relative viability ([2]; first compound 0.4 µM): 0.709
- relative viability ([2]; first compound 1.265 µM): 0.81
- relative viability ([2]; first compound 4 µM): 0.783
- relative viability ([3]; first compound 0.04 µM): 0.528
- relative viability ([3]; first compound 0.1265 µM): 0.519
- relative viability ([3]; first compound 0.4 µM): 0.616
- relative viability ([3]; first compound 1.265 µM): 0.618
- relative viability ([3]; first compound 4 µM): 0.677
- relative viability ([4]; first compound 0.04 µM): 0.432
- relative viability ([4]; first compound 0.1265 µM): 0.391
- relative viability ([4]; first compound 0.4 µM): 0.422
- relative viability ([4]; first compound 1.265 µM): 0.437
- relative viability ([4]; first compound 4 µM): 0.449

Cell Line: HCC-15
- relative viability ([1]; first compound 0.04 µM): 0.69
- relative viability ([1]; first compound 0.4 µM): 0.681
- relative viability ([1]; first compound 1.265 µM): 0.751
- relative viability ([1]; first compound 4 µM): 0.678
- relative viability ([2]; first compound 0.04 µM): 0.389
- relative viability ([2]; first compound 0.4 µM): 0.362
- relative viability ([2]; first compound 1.265 µM): 0.337
- relative viability ([2]; first compound 4 µM): 0.404
- relative viability ([3]; first compound 0.04 µM): 0.491
- relative viability ([3]; first compound 0.4 µM): 0.474
- relative viability ([3]; first compound 1.265 µM): 0.512
- relative viability ([3]; first compound 4 µM): 0.509
- relative viability ([4]; first compound 0.04 µM): 0.209
- relative viability ([4]; first compound 0.1265 µM): 0.222
- relative viability ([4]; first compound 0.4 µM): 0.226
- relative viability ([4]; first compound 1.265 µM): 0.218
- relative viability ([4]; first compound 4 µM): 0.22
